Series [1] has as its system leukemic cells. The settings on record: cited from earlier work.
Series [2] concerns lymphoid leukemia L-1210. The settings on record: tumor cells implanted intraperitoneally; cited from earlier work.
Series [3] is described as follows: Preventive effect against the growth of Ehrlich ascites tumor (Method A). It counts as in vivo, mice (female ICR). The settings on record: mouse, in vivo, ip; maximum dose with 100% inhibition of Ehrlich ascites tumor without causing death; unit from dose column; read-out: MTD (Maximum Tolerated Dose). The method, then:
(§1) (A) Preventive effect against the growth of Ehrlich ascites tumor:
(§2) 10^6 tumor cells of Ehrlich ascites carcinoma were inoculated intraperitoneally into a group of five femal mice (ICR mice, body weight: 19-23 g). A test compound was dissolved in a physiological saline solution [In the case where CCNU was employed as the test compound, said compound was suspended in a physiological saline solution containing 0.1% NIKKOL HCO-60 (trademark; a surface active agent manufactured by Nikko Chemicals Co. Ltd.)] and administered intraperioneally to the mice. The administration of the test compound was begun 24 hours after the inoculation of the tumor cells and performed once a day for 5 days. The volume of ascites in the treated mice were measured after 7 days of the experiment.
(§3) ^a T = the average volume of ascites in the treated mice
(§4) C = the average volume of ascites in the untreated mice (control group of
(§5) 100% inhibition for the growth of Ehrlich ascites tumor in mice without
(§6) causing the death of said mice)
(§7) 100% inhibition for the growth of said ascites tumor)
(§8) ^e Therapeutic index = MTD/MED
(§9) *the number of mice died/the number of mice used

The subject of series [4] is Ehrlich ascites carcinoma. The series is described as above. It counts as in vivo, mice (female ICR). The settings on record: for inhibition in vivo at 0.19 mg/kg: 0.19 mg/kg/day i.p.; for inhibition in vivo at 0.39 mg/kg: 0.39 mg/kg/day i.p.; for inhibition in vivo at 0.78 mg/kg: 0.78 mg/kg/day i.p.; for inhibition in vivo at 3.12 mg/kg: 3.12 mg/kg/day i.p.; for minimal effective dose: minimum dose with 100% inhibition of ascites tumor, unit from dose column, read-out: MED (Minimum Effective Dose). The method, then: as §1, §2, §3, §4, §5, §6, §7, §8, §9

Series [5] relates to Leukemia L-1210. The series can be described thus: Effect on the life span of mice implanted with leukemic cells of L-1210 (Method B). The format is in vivo, mice (male BDF1). Particulars: Mus musculus, L1210, ip, once a day for 5 days; for ILS at 25 mg/kg / responders at 25 mg/kg: 25 mg/kg/day i.p.; for ILS at 50 mg/kg / responders at 50 mg/kg: 50 mg/kg/day i.p. The procedure: (B) Effect on the life span of mice implanted with leukemic cells of L-1210:
10^5 leukemic cells of L-1210 were inoculated intraperitoneally into a group of four or six male mice (BDF1 mice, body weight: 19-23 g). A test compound was dissolved in a physiological saline solution and administered intraperitoneally to the mice. The administration of the test compound was begun 24 hours after the inoculation of the leukemic cells and performed once a day for 5 days. The survival days of the treated mice were observed.
^a T = the mean survival days of the treated mice
C = the mean survival days of the untreated mice (control group of mice)
^b ILS(Increase in Life Span) =-
^c 60day survivors = the number of mice survived for 60 days/the

The mark [6] stands for this setting: Mus musculus, Ehrlich, ip, 168 h, once a day for 5 days, read-out: Inhibition ratio.
[7] abbreviates: Mus musculus, Ehrlich, ip, 168 h.
[8] abbreviates: 120 h, read-out: ILS (Increase in Life Span).
[9] abbreviates: 1440 h, 12.5 mg/kg/day i.p., read-out: 60-day survivors (mice survived for 60 days/mice used) (converted).
Where [10] appears, read: 1440 h, read-out: 60-day survivors (mice survived for 60 days/mice used) (converted).

The term MTD denotes the largest dose that counted as tolerated. Usually ILS stands for how much longer treated animals lived than controls.

For `O=NN(CCCl)C(=O)NC1O[C@H](CO)[C@@H](O[C@@H]2O[C@H](CO)[C@H](O)[C@H](O)[C@H]2O)[C@H](O)[C@H]1O` (stereo partly drawn) [1-(2-chloroethyl)-1-nitroso-3-(D-lactosyl)urea], the “anti-tumor activity against leukemic cells” value in series [1] is reported as “show anti-tumor activity”.

Turning to `O=NN(CCCl)C(=O)NC1O[C@H](CO)[C@@H](O[C@H]2O[C@H](CO)[C@@H](O)[C@H](O)[C@H]2O)[C@H](O)[C@H]1O` (stereo partly drawn) [1-(2-chloroethyl)-1-nitroso-3-(D-maltosyl)urea], in series [1], the “anti-tumor activity against leukemic cells” value is given as “show anti-tumor activity”.

For `O=NN(CCCl)C(=O)NC1O[C@H](CO)[C@@H](O)[C@H](O)[C@@H]1O` (stereo partly drawn) [1-(2-chloroethyl)-1-nitroso-3-(D-mannopyranosyl)urea], the “life span of mice implanted with L-1210” value in series [2] is on record as “increase the life span”.

For the compound `COCCN(C(=O)N(CCCl)N=O)C1O[C@H](CO)[C@@H](O)[C@H]1O` (stereo partly drawn) [Compound 9, 1-(2-chloroethyl)-1-nitroso-3-(2-methoxyethyl)-3-(D-ribofuranosyl)urea], in series [3], the maximum tolerated dose (MTD) at 168 h stood at 50 mg/kg/day. Also, the “Toxic (number of mice died/number of mice used)” value in series [4] (100 mg/kg/day i.p., once a day for 5 days) was 3/5. Also, the “Therapeutic index (MTD/MED)” value in series [4] turned out to be 64. Moreover, in series [4] (setting [6]), the inhibition in vivo at 0.19 mg/kg worked out at 20%, the inhibition in vivo at 0.39 mg/kg was found to be 62%, the inhibition in vivo at 0.78 mg/kg came to 100% and the inhibition in vivo at 3.12 mg/kg was found to be 100%. Also, in series [4] (Mus musculus, Ehrlich, ip, 168 h, 12.5 mg/kg/day i.p., once a day for 5 days, read-out: Inhibition ratio), the inhibition in vivo at 12.5 mg/kg was 100%. Also, the inhibition in vivo at 50 mg/kg in series [4] (Mus musculus, Ehrlich, ip, 168 h, 50 mg/kg/day i.p., once a day for 5 days, read-out: Inhibition ratio) was 100%. Further, the minimal effective dose in series [4] (setting [7]) was 0.78 mg/kg/day. In addition, in series [5] (120 h, 1.56 mg/kg/day i.p., read-out: ILS (Increase in Life Span)), the ILS at 1.56 mg/kg is 40%. Also, the ILS at 6.25 mg/kg in series [5] (120 h, 6.25 mg/kg/day i.p., read-out: ILS (Increase in Life Span)) is over 243%. Further, the ILS at 12.5 mg/kg in series [5] (120 h, 12.5 mg/kg/day i.p., read-out: ILS (Increase in Life Span)) was over 414%. In series [5] (setting [8]), the increase in life span (ILS) at 25 mg/kg was over 757% and the increase in lifespan (ILS) at 50 mg/kg was over 757%. The responders at 1.56 mg/kg in series [5] (1440 h, 1.56 mg/kg/day i.p., read-out: 60-day survivors (mice survived for 60 days/mice used)) is 0%. Also, in series [5] (1440 h, 6.25 mg/kg/day i.p., read-out: 60-day survivors (mice survived for 60 days/mice used) (converted)), the responders at 6.25 mg/kg was 25%. For the same compound, the responders at 12.5 mg/kg in series [5] (setting [9]) was 50%. Further, in series [5] (setting [10]), the responders at 25 mg/kg was 100% and the responders at 50 mg/kg is 100%.

As for `COCCCN(C(=O)N(CCCl)N=O)C1O[C@H](CO)[C@@H](O)[C@H](O)[C@H]1O` (stereo partly drawn) [Compound 12, 1-(2-chloroethyl)-1-nitroso-3-(3-methoxy-n-propyl)-3-(D-glucopyranosyl)urea], in series [3], the MTD at 168 h came out at 100 mg/kg/day. The “Toxic (number of mice died/number of mice used)” value in series [4] (200 mg/kg/day i.p., once a day for 5 days) was 5/5. For the same compound, the “Therapeutic index (MTD/MED)” value in series [4] worked out at 32. Moreover, in series [4] (setting [6]), the inhibition in vivo at 0.39 mg/kg turned out to be 10%, the inhibition in vivo at 0.78 mg/kg stood at 34% and the inhibition in vivo at 3.12 mg/kg stood at 100%. The inhibition in vivo at 1.56 mg/kg in series [4] (Mus musculus, Ehrlich, ip, 168 h, 1.56 mg/kg/day i.p., once a day for 5 days, read-out: Inhibition ratio) was 90%. Also, in series [4] (Mus musculus, Ehrlich, ip, 168 h, 6.25 mg/kg/day i.p., once a day for 5 days, read-out: Inhibition ratio), the inhibition in vivo at 6.25 mg/kg is 100%. Moreover, the inhibition in vivo at 25 mg/kg in series [4] (Mus musculus, Ehrlich, ip, 168 h, 25 mg/kg/day i.p., once a day for 5 days, read-out: Inhibition ratio) was 100%. For the same compound, the inhibition in vivo at 100 mg/kg in series [4] (Mus musculus, Ehrlich, ip, 168 h, 100 mg/kg/day i.p., once a day for 5 days, read-out: Inhibition ratio) came to 100%. Moreover, the minimal effective dose in series [4] (setting [7]) is 3.12 mg/kg/day. Besides, in series [5] (setting [8]), the ILS at 25 mg/kg is over 304% and the ILS at 50 mg/kg was over 757%. The responders at 12.5 mg/kg in series [5] (setting [9]) is 0%. Moreover, in series [5] (setting [10]), the responders at 25 mg/kg was 25% and the responders at 50 mg/kg was 100%.

In the case of `O=NN(CCCl)C(=O)N[C@@H]1O[C@H](CO)[C@@H](O)[C@H](O)[C@H]1O` [GANU, 1-(2-chloroethyl)-1-nitroso-3-(D-glucopyranosyl)urea, reference compound], the maximum tolerated dose (MTD) at 168 h in series [3] amounted to 12.5 mg/kg/day. In addition, the “Toxic (number of mice died/number of mice used)” value in series [4] (25 mg/kg/day i.p., once a day for 5 days) was 5/5. Also, the inhibition in vivo at 0.09 mg/kg in series [4] (Mus musculus, Ehrlich, ip, 168 h, 0.09 mg/kg/day i.p., once a day for 5 days, read-out: Inhibition ratio) was 4.2%. In series [4] (setting [6]), the inhibition in vivo at 0.19 mg/kg was 79.2%, the inhibition in vivo at 0.39 mg/kg was determined as 100%, the inhibition in vivo at 0.78 mg/kg worked out at 100% and the inhibition in vivo at 3.12 mg/kg is 100%. Also, in series [4] (Mus musculus, Ehrlich, ip, 168 h, 1.25 mg/kg/day i.p., once a day for 5 days, read-out: Inhibition ratio), the inhibition in vivo at 1.25 mg/kg was 100%. For the same compound, the “life span of mice implanted with L-1210” value in series [2] was “increase the life span”.

Source of the values: patent publication US4241053A, “Novel nitrosourea compounds and process for preparing the same” (Tanabe Seiyaku Co., Ltd., priority 1978, dated 1980).
